We go through eleven molecules from article PMC8131325 (The Journal of Biological Chemistry, 2021).

Read-outs that look alike come from different tables or passages of the source. Ends that are not written are not given here.

One data set relates to αSyn. Nature of the data set: Thio-T fluorescence assay of αSyn fibril formation with added protein. In kind it is biochemical, Human. Conditions: αSyn 69 μM, 50 mM Tris-HCl pH 7.4, 150 mM NaCl, 37 °C, agitation. The method, then: The formation of αSyn fibrils were detected in fluorescence assays using Thio-T. Samples (1 mg/ml; 69 μM) of either WT or mutant αSyn were incubated in Thio-T assay buffer (50 mM Tris-HCl, pH 7.4, containing 150 mM NaCl and 20 μM Thio-T) with or without additional FABP3 and/or αSyn-derived oligopeptides. One hundred 50 μl aliquots were incubated in 96-well plates (8 × 12-well plate; Greiner) at 37 °C using an ARVOX4 (PerkinElmer) fluorescent plate reader with continuous agitation. The fluorescence signal of the samples (Ex: 440 nm, Em: 486 nm) were measured at 15 min intervals. In experiments where the effects of delayed FABP3 addition were probed (Fig. 1C), an equimolar concentration of FABP3 was added to the respective wells after an initial agitation regimen of 3, 8, or 24 h. Data shown are the average of data from three 150 μl samples, and error bars indicate standard errors of the mean.

Another data set deals with T1, FABP3 (Homo sapiens, UniProt P05413).
T1 construct: made in house; host or cells: E. coli BLR(DE3), pET28a-derived vector (NdeI/XhoI), synthetic gene (Invitrogen GeneArt)
The experiment in a line: Quartz crystal microbalance (QCM) binding assay to immobilized FABP3. Conditions: for kon / koff: QCM, immobilized His6-FABP3, 50 mM Tris-HCl pH 7.4, room temperature, kobs = koff + kon[αSyn].

Another data set concerns N2a cells. The experiment in a line: Cell viability by Tali Image-Based Cytometer (Calcein-AM/ethidium homodimer). More on the design: species or system Mouse. Conditions: protein co-expressed with FABP3 in N2a cells, 30 μM 6-OHDA 24 h. The method, then: Cell viability measurements using a Tali Image-Based Cytometer (Thermo Fisher Scientific) were performed according to previous methods ([59]). After 24 h incubation, media was changed to 0% FBS+MEM containing 30 μM 6-hydroxydopamine and incubated for 24 h. Statistical comparisons were performed by Welch’s t test.

The nature of data set [1]: Dynamic light scattering of fibril-forming samples. Particulars: DLS, 25 °C. Format: physicochemical. The method, then:
Dynamic light scattering measurements were performed on an Otsuka Electronics FDLS-3000 monitor with a laser wavelength of 532 nm at an observation angle of 90°. Sample protein concentrations were adjusted to 0.3 mg/ml, and a sample volume of 2 ml was used for measurements. Samples were filtered before measurement.

In another data set the target is T2, FABP3 F16S (Homo sapiens, UniProt P05413, F17S).
T2 construct: made in house
Nature of the data set: QCM binding assay to immobilized FABP3 F16S mutant. The protocol: The binding affinities between αSyn and FABP3 were estimated directly using an Affinix QNμ quartz crystal microbalance apparatus operating at room temperature. Samples of His6-FABP3 were affixed to the gold-plated quartz sensor by nickel chelating binding groups as follows. Before binding, the gold sensor was washed with 1% SDS and piranha solution (H2SO4:H2O2 = 3:1). Next, 100 μl of 0.5 mM 3, 3’-dithiobis[N-(5-amino-5-carboxypentyl)propionamide-N’,N’-diacetic acid]dihydrochloride (C₂-NTA, Dojindo) solution was applied and incubated for 10 min at room temperature. This solution was rinsed with Milli-Q water, and 500 μl of Ni+ solution (20 mM Hepes-NaOH buffer, pH 7.5, containing 150 mM NaCl,[…] 10 mM NiSO4) was added. After a 10 min incubation, the sensor was washed again with Milli-Q, then a 0.1 μM sample of His6-FABP3 in 50 mM Tris-HCl buffer, pH 7.4 was applied. The signal from the quartz sensor was then monitored over a 1 s interval with gentle stirring. To initiate the data sampling run, samples of αSyn with varying concentrations were then applied to the sensor. After each experimental run, the bound His6-FABP3 was removed by the application of 500 μl imidazole solution (0.4 M imidazole/20 mM Hepes pH 7.5/150 mM NaCl) for 30 min, followed by a Milli-Q rinse, and reattachment of Ni-ion and fresh His6-FABP3 to reset the sensor to its original state. Analysis of the raw traces to obtain quantitative affinity values were performed using the software package (AQUA 2.0) provided by the manufacturer, according to the following linear relationship between the observed rate constant kobs and the concentration of αSyn; kobs = koff + kon[αSyn]. Estimated kon and koff values were then used to determine the Kd.

One may read the koff as the rate constant with which the complex falls apart. One may read the Kd as the equilibrium constant for the complex coming apart.

T2 sequence (P05413 whole entry F17S): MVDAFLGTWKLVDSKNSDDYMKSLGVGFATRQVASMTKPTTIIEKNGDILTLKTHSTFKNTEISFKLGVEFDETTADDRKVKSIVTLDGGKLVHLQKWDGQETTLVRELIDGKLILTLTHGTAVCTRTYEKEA
T1 sequence (P05413 whole entry): as the sequence (P05413 whole entry F17S) above, with S17F counted along it

On to bovine serum albumin, for which the “effect of added protein on αSyn fibril formation” value in the data set on αSyn is “no significant suppressive effects in fibrillation of αSyn”.

Turning to EEGYQDWEPEA [αSynP130-140Y136W], the kon at FABP3 is given as 3.8 × 10^5 M^−1・s^−1. Besides, at FABP3 (read-out: koff), the koff worked out at 0.0024 s⁻¹.

With EEGFQDWEPEA [αSynP130-140 Y133F/Y136W], at FABP3, binding was characterised by a dissociation constant (Kd) of 6.1 nM and the kon was 3.2 × 10^5 M^−1・s^−1. Besides, at FABP3 (read-out: koff), the koff came out at 0.0019 s⁻¹.

In the case of α-synuclein [αSyn], in the data set on N2a cells, the Alive cells is reported as 77% and the Dead cells is reported as 0%. For the same molecule, the “Dying cells (co-stained with Calcein-AM and EthD-1)” value in the data set on N2a cells (control 12%) is 23%. Further, the average particle size in data set [1] (αSyn alone, absence of FABP3, after 1200 min incubation) was determined as 6 μm. The average particle size in data set [1] (αSyn in the presence of FABP3, after 1200 min incubation) was found to be 0.63 μm. Also, the “binding to FABP3 F16S (in words)” value at FABP3 F16S was “unable to bind”. In addition, the Kd on FABP3 (QCM (Affinix QNμ), His6-FABP3 immobilized via Ni-NTA on gold sensor, 50 mM Tris-HCl pH 7.4, room temperature, Kd determined from estimated kon and koff) was 7.2 nM. Besides, on FABP3, the koff worked out at 0.0046 s⁻¹ and the kon was 6.4 × 10^5 M^−1・s^−1.

EEGYQDYEPEA [αSynP130-140]: on FABP3, the Kd is 6.1 nM and the kon is given as 2.0 × 10^5 M^−1・s^−1. Also, the koff on FABP3 (read-out: koff) was determined as 0.0012 s⁻¹.

Take `CCCCC/C=C\C/C=C\C/C=C\C/C=C\CCCC(=O)O` [arachidonic acid, reference compound]: at FABP3 F16S, binding was characterised by a dissociation constant (Kd) of 2090 nM, the koff is 0.0047 s⁻¹ and the kon is reported as 0.02 × 10^5 M^−1・s^−1. At FABP3, binding was put at a Kd of 6.8 nM and the kon is 0.8 × 10^5 M^−1・s^−1. For the same molecule, the koff on FABP3 (read-out: koff) worked out at 0.0006 s⁻¹.

For EEGFQDFEPEA [αSynP130-140 Y133F/Y136F], at FABP3, the kon is on record as 5.4 × 10^5 M^−1・s^−1. The koff on FABP3 (read-out: koff) came out at 0.0011 s⁻¹.

With EEGWQDWEPEA [αSynP130-140Y133W/Y136W], on FABP3, the kon is on record as 2.4 × 10^5 M^−1・s^−1. Besides, at FABP3 (read-out: koff), the koff worked out at 0.0015 s⁻¹.

Take lysozyme: the “effect of added protein on αSyn fibril formation” value with αSyn is “no significant suppressive effects in fibrillation of αSyn”.

Turning to EEGYQDFEPEA [αSynP130-140Y136F], the kon at FABP3 is reported as 4.8 × 10^5 M^−1・s^−1. For the same molecule, the koff at FABP3 (read-out: koff) came out at 0.0037 s⁻¹.

Consider EEGFQDYEPEA [αSynP130-140Y133F], for which the kon at FABP3 is 7.5 × 10^5 M^−1・s^−1. In addition, the koff on FABP3 (read-out: koff) was 0.0015 s⁻¹.
